Laboratory results from patent US12594349B2, “Compositions and methods for the targeting of PCSK9” (Scribe Therapeutics Inc., priority 2022, dated 2026).

Test system: human PCSK9 locus
Assay: Secreted PCSK9 by ELISA in Huh7 cells transfected with mRNA and gRNA
Format: cell-based
Conditions: Huh7 cells; for Secreted PCSK9: 6 days post-transfection, normalized to total cell count; for Percent reduction in PCSK9 secretion / Average percent reduction in PCSK9 secretion: LTRP5-ADD-ZIM3 mRNA; for Percent reduction in PCSK9 secretion: day 6, relative to non-targeting gRNA control; for Average percent reduction in PCSK9 secretion: day 6, averaged from the two doses
Protocol: To assess PCSK9 secretion, seeded Huh7 cells were transfected with mRNA encoding a catalytically-active CasX 676, dXR1, or LTRP5-ADD-ZIM3 and a gRNA with scaffold 316 and spacer targeting either the B2M or PCSK9 locus. Media supernatant was harvested at 6, 18, 36, and 87 days post-transfection to assess level of PCSK9 secretion by ELISA. Levels of PCSK9 secretion were normalized to total cell count. As an additional control, PCSK9 secretion was also measured in the media supernatant harvested from wells containing untreated, naïve cells.
The following three human hepatocyte cancer cell lines were used in this experiment: HepG2 cells, Hep3B cells, and Huh7 cells. ˜15,000 cells of each cell line were seeded per well; the next day, seeded cells were transfected with mRNA encoding a catalytically-active CasX 676, dXR1, or LTRP5-ADD-ZIM3 and a gRNA with scaffold 316 and spacer targeting either the B2M or PCSK9 locus (see Table 23 for specific spacers and sequences). Media supernatant was harvested at 4 days post-transfection to assess level of PCSK9 secretion by ELISA, and levels of PCSK9 secretion were normalized to total cell count and illustrated in FIGS. 11A-11C. Culturing of treated Huh7 cells continued, and media supernatant was harvested at 14 and 27 days post-transfection for measuring PCSK9 secretion by ELISA. As an additional experimental control, PCSK9 secretion was also measured in the media supernatant harvested from wells containing untreated, naïve cells.
To assess PCSK9 secretion, seeded Huh7 cells were co-transfected with mRNA encoding for LTRP5-ADD-ZIM3 and a gRNA with scaffold 316 and spacer targeting the PCSK9 locus using Lipofectamine™ 3000. Two doses of total RNA input at a 2:1 mass ratio of mRNA to gRNA were used for screening: 50 ng mRNA:25 ng gRNA and 25 ng mRNA:12.5 ng gRNA. Media supernatant was harvested at 6 days post-transfection to assess level of PCSK9 secretion by ELISA (Table 74). Levels of PCSK9 secretion were normalized to total cell count. As an additional control, PCSK9 secretion was also measured in the media supernatant harvested from cells transfected with mRNA encoding for mScarlet.

[1] = LTRP5-ADD-ZIM3 mRNA + gRNA scaffold 316, 25 ng mRNA:12.5 ng gRNA
[2] = LTRP5-ADD-ZIM3 mRNA + gRNA scaffold 316, 50 ng mRNA:25 ng gRNA

TG-06-145 (guide UGGGUCCACCUUGUCUCCUG; listed as RNA, chemistry not given here)
Secreted PCSK9 [1]: 18.54 ng/mL
Secreted PCSK9 [2]: 15.8 ng/mL
Percent reduction in PCSK9 secretion (25 ng mRNA:12.5 ng gRNA): 73.98%
Percent reduction in PCSK9 secretion (50 ng mRNA:25 ng gRNA): 80.8%
Average percent reduction in PCSK9 secretion: 77.39%

TG-06-004 (guide GCCAGGCCGUCCUCCUCGGA; listed as RNA, chemistry not given here)
Secreted PCSK9 [1]: 73.05 ng/mL
Secreted PCSK9 [2]: 54.83 ng/mL
Percent reduction in PCSK9 secretion (25 ng mRNA:12.5 ng gRNA): 2.54%
Percent reduction in PCSK9 secretion (50 ng mRNA:25 ng gRNA): 33.35%
Average percent reduction in PCSK9 secretion: 15.41%

TG-06-170 (guide UCGGCCUCCGGGUCUCCCAA; listed as RNA, chemistry not given here)
Secreted PCSK9 [1]: 72.96 ng/mL
Secreted PCSK9 [2]: 64.19 ng/mL
Percent reduction in PCSK9 secretion (25 ng mRNA:12.5 ng gRNA): 2.41%
Percent reduction in PCSK9 secretion (50 ng mRNA:25 ng gRNA): 21.98%
Average percent reduction in PCSK9 secretion: 9.79%

TG-06-124 (guide CAGUAUCGACAGCCCUUCCA; listed as RNA, chemistry not given here)
Secreted PCSK9 [1]: 30.59 ng/mL
Secreted PCSK9 [2]: 16.54 ng/mL
Percent reduction in PCSK9 secretion (25 ng mRNA:12.5 ng gRNA): 57.06%
Percent reduction in PCSK9 secretion (50 ng mRNA:25 ng gRNA): 79.9%
Average percent reduction in PCSK9 secretion: 68.48%

TG-06-144 (guide GUGGGCAGCGAGGAGUCCAC; listed as RNA, chemistry not given here)
Secreted PCSK9 [1]: 29 ng/mL
Secreted PCSK9 [2]: 23.42 ng/mL
Percent reduction in PCSK9 secretion (25 ng mRNA:12.5 ng gRNA): 59.29%
Percent reduction in PCSK9 secretion (50 ng mRNA:25 ng gRNA): 71.53%
Average percent reduction in PCSK9 secretion: 65.41%

TG-06-148 (guide GCCGGGCCCACCUUUUCAGU; listed as RNA, chemistry not given here)
Secreted PCSK9 [1]: 44.77 ng/mL
Secreted PCSK9 [2]: 71.46 ng/mL
Percent reduction in PCSK9 secretion (25 ng mRNA:12.5 ng gRNA): 37.16%
Percent reduction in PCSK9 secretion (50 ng mRNA:25 ng gRNA): 13.15%
Average percent reduction in PCSK9 secretion: 25.15%

TG-06-120 (guide CUCGGAAUCUGCUGUGCAUC; listed as RNA, chemistry not given here)
Secreted PCSK9 [1]: 47.97 ng/mL
Secreted PCSK9 [2]: 21.43 ng/mL
Percent reduction in PCSK9 secretion (25 ng mRNA:12.5 ng gRNA): 32.67%
Percent reduction in PCSK9 secretion (50 ng mRNA:25 ng gRNA): 73.95%
Average percent reduction in PCSK9 secretion: 53.31%

TG-06-005 (guide GUGCUCGGGUGCUUCGGCCA; listed as RNA, chemistry not given here)
Secreted PCSK9 [1]: 76.37 ng/mL
Secreted PCSK9 [2]: 67.08 ng/mL
Percent reduction in PCSK9 secretion (25 ng mRNA:12.5 ng gRNA): 7.19%
Percent reduction in PCSK9 secretion (50 ng mRNA:25 ng gRNA): 18.47%
Average percent reduction in PCSK9 secretion: 5.64%

TG-06-146 (guide GAAGUCUCACUGGUCAGCAG; listed as RNA, chemistry not given here)
Secreted PCSK9 [1]: 20.34 ng/mL
Secreted PCSK9 [2]: 40.84 ng/mL
Percent reduction in PCSK9 secretion (25 ng mRNA:12.5 ng gRNA): 71.45%
Percent reduction in PCSK9 secretion (50 ng mRNA:25 ng gRNA): 50.36%
Average percent reduction in PCSK9 secretion: 60.9%

TG-06-127 (guide UCCUCCUGCCUGGUACACAA; listed as RNA, chemistry not given here)
Secreted PCSK9 [1]: 49.1 ng/mL
Secreted PCSK9 [2]: 22.57 ng/mL
Percent reduction in PCSK9 secretion (25 ng mRNA:12.5 ng gRNA): 31.08%
Percent reduction in PCSK9 secretion (50 ng mRNA:25 ng gRNA): 72.56%
Average percent reduction in PCSK9 secretion: 51.82%

TG-06-171 (guide CAGUACGUUCCAGGCAUUCA; listed as RNA, chemistry not given here)
Secreted PCSK9 [1]: 55.95 ng/mL
Secreted PCSK9 [2]: 52.41 ng/mL
Percent reduction in PCSK9 secretion (25 ng mRNA:12.5 ng gRNA): 21.46%
Percent reduction in PCSK9 secretion (50 ng mRNA:25 ng gRNA): 36.3%
Average percent reduction in PCSK9 secretion: 28.88%

TG-06-121 (guide GGAAGGGCUGUCGAUACUGG; listed as RNA, chemistry not given here)
Secreted PCSK9 [1]: 37.13 ng/mL
Secreted PCSK9 [2]: 28.33 ng/mL
Percent reduction in PCSK9 secretion (25 ng mRNA:12.5 ng gRNA): 47.89%
Percent reduction in PCSK9 secretion (50 ng mRNA:25 ng gRNA): 65.57%
Average percent reduction in PCSK9 secretion: 56.73%
